US12202866B2, “Therapeutic nanoconjugates and uses thereof” (UNIVERSITAT AUTÒNOMA DE BARCELONA (UAB), priority 2017, dated 2025)
Marks after values point to notes of the source that are not given here.

Key:
[1] = tested on: subcutaneous CXCR4^+ SW1417 CRC tumor; test: Tumor uptake and tumor cell internalization in subcutaneous CXCR4+ SW1417 CRC model; parameters: tumor uptake measured by fluorescence emission: dose or concentration left out as unconfirmed
Experimental: SC model was used to assess tumor uptake and nanoconjugate internalization and in vivo competition studies using co-administration of the CXCR4 antagonist AMD3100.
Two hours, 5 h and 24 h after the administration, the mouse was euthanized to resect the tumor and register ex vivo the intensity of the green fluorescence emitted by the nanoconjugated that biodistributed to tumor tissue using the IVIS® 200-Spectrum (Perkin Elmer, MA, USA). Following, tumor tissue samples were taken, processed and performed immunohistochemistry (IHC) to determine the presence or absence of the corresponding nanoconjugate into cytosol of tumor cells using an anti-GFP antibody (1:300; Santa-Cruz Biotechnology, CA, USA). […] Apoptosis was assessed determining nuclear condensation with Hoechst staining of tumor tissue sections and counting the number of condensed or defragmented nuclei in five high-power magnification fields in different sections for each tumor using the Olympus DP73 digital camera and the CellD Imaging 3.3 programme (Olympus, Tokyo, Japan).

CXCR4^+ SW1417 CRC cells = test: Internalization in CXCR4+ SW1417 CRC cells (flow cytometry, AMD3100 competition); format: cell-based, human; parameters: internalization measured by fluorescence emission using flow cytometry: dose or concentration left out as unconfirmed; settings: 1 hour exposure
Experimental: CXCR4+ SW1417-luc CRC cells were cultured in modified Eagle's medium (Gibco, Rockville, MD) supplemented with 10% fetal calf serum (Gibco), and incubated at 37° C. and 5% CO2 in a humidified atmosphere. […] Fluorescence emission was measured with a D detector (530/30 nm band pass filter). To assess specificity for CXCR4 receptor-mediated internalization, competition studies were performed incubating CRC SW1417 cells with the CXCR4 antagonist AMD3100 (Sigma Aldrich) in a 1:10 (protein:antagonist) molar ratio for 1 h before exposure to the nanoconjugate at […] for an additional hour.
The cells were washed in phosphate-buffered saline (Sigma-Aldrich). Live cells were recorded by TCS-SP5 confocal laser scanning microscopy (Leica Microsystems, Heidelberg, Germany) using a Plan Apo 63×/1.4 (oil HC×PL APO lambda blue) objective as described. To determine particle localization inside the cell, stacks of 10-20 sections forevery 0.5 μm of cell thickness were collected and three-dimensional models were generated using Imaris version 6.1.0 software (Bitplane, Zurich, Switzerland).

[2] = tested on: CXCR4^+ SW1417 CRC metastases; test: Regression of established metastasis protocol, orthotopic CXCR4+ SW1417 CRC model; format: in vivo, Swiss nude mice
Experimental: Swiss nude mice were anesthetized with ketamine and xylazine, exteriorizing their cecum by a laparotomy. 2×106 CXCR4^+ SW1417-luci CRC cells (expressing luciferase, to allow ex vivo bioluminescent identification of metastatic foci in affected organs at the end of therapy) were suspended in […] of modified Eagle's medium, and loaded into a sterile micropipette. The cell suspension was slowly injected, under a binocular lens, with an approximate 30° angle and its tip introduced 5 mm into the cecal wall. Afterward, a slight pressure was applied with a cotton stick at approximately 2 mm from the injection point in the direction of the pipette axis. The pipette was pulled out and the area around the injection cleaned with 3% iodine. After injection, the gut was returned to the abdominal cavity and closed with surgical staples.
The orthotopic and metastatic CRC model developed in Swiss nude mice was employed to perform experiments of metastasis regression. […] The experiment was finished when the first animal of the buffer-treated-group had to be euthanized. See below the studied parameters to evaluate the antimetastatic effect.
At necropsy, the number and size of visible metastases in the organs where dissemination is expected in colorectal cancer (lymph nodes, liver, lung and peritoneum) were recorded for each mouse in all compared groups. Also the number of metastatic foci that emitted bioluminiscence (derived from the SW1417-luci CRC cells) were counted ex vivo in the target organs for metastasis, using the IVIS® 200-Spectrum (Perkin-Elmer). Samples for histopathological and immunohistochemical analyses were collected and processed. Two independent observers analyzed H&E stained samples to count the number and measure the size of all observed metastatic foci in three (metastasis prevention experiment) or six (regression of metastasis experiment) sections of each organ in each mouse. The images were taken and the measurements were performed with an Olympus microscope with the CellD Olympus software (v3.3). […] The obtained results were used to study a possible correlation between CXCR4^+ CCF and antimetastatic effect at the different sites.
In order to analyze differences between control and experimental groups of affected mice in metastatic rates at the different organs, Fisher's exact test was used. The Mann-Whitney test was used to compare number and size of metastatic foci in the affected organs among groups. All quantitative values were expressed as mean±SE and the statistical tests were performed using SPSS version 11.0 (IBM, New York, USA). Differences among groups was considered significant at a p<0.05.

Q: Which “tumor uptake measured by fluorescence emission” value ([1]; 5 h after injection, i.v.) does the source give for “T22-GFP-H6-FdU: nanoconjugate of T22-GFP-H6 protein nanoparticle covalently bound via maleimide linker to thiol-functionalized pentameric floxuridine oligonucleotide (oligo-FdU)” here?
A: selective tumor uptake

Q: What about the “internalization into CXCR4^+ tumor cell cytosol by anti-GFP immunohistochemistry” value ([1]; single i.v. dose) of the same substance?
A: internalized

Q: And the “internalization measured by fluorescence emission using flow cytometry” value (CXCR4^+ SW1417 CRC cells)?
A: internalized

Q: And the “LN foci, mean foci number per mouse” value ([2]; Regression protocol, 20 μg (or equimolecular) q3d x10 i.v., 6 histology sections, mean + SE)?
A: 0.4 ± 0.1 ^h,i

Q: What about the “Lung foci, mean foci number per mouse” value ([2]; Regression protocol, 6 histology sections, mean + SE) of the same substance?
A: 0.7 ± 0.4 ^k,l,m

Q: And the “regression of established lung metastasis” value ([2]; compared to free oligo-FdU)?
A: more potent than free oligo-FdU

Q: And the “primary tumor growth by in vivo bioluminescence emission” value ([2]; regression experiment, compared to buffer treated animals)?
A: significantly inhibited tumor growth
